How the values were obtained:
[1] = target: glucocorticoid receptor (GR); assay: PathHunter GR translocation EFC assay, antagonist mode (pre-incubation before agonist); type: cell-based, human; details: pre-incubated 1 hour
Procedure: (§1) • 5 mM Potassium phosphate (dibasic) • 5 mM Potassium phosphate (monobasic) • 150 mM Sodium Chloride • 10 mM Magnesium Acetate • 2% CHAPS • pH6.9 Reagent Buffer/Substrate Formulation/Mixture Used in the Assay: • 1 part Galacton Star (ABI) • 5 parts Emerald II enhancer (ABI) • 19 parts Lysis buffer with 2% CHAPS (DX) Assay Protocol (96 Well Assay Format) • 1. 10,000 CHO-EA+GR-PL cells/well in a volume of 100 μL are plated in a Costar 96 well white, clear bottom plate and allowed to adhere overnight at 37° C./5% CO2 in an incubator. • 2. […] The reaction is incubated for 3-4 hours in a 37° C./5% CO2 incubator. • 4. To the reaction, equal aliquots from 50 mL of reagent solution are added to the wells. • 5. The plate is read on a standard multiwell plate reader that can measure luminescent activity. (e.g., Wallac Victor II or Packard Lumicount) after 30 and 60 minutes.
The glucocorticoid receptor (GR) was subcloned by using a pCMV-GR-PL construct generated by Panomics, Inc. as pcr template, adding Bgl 2 and Kpn I sites at the 5′ and 3′ ends respectively. The GR sequence was based on and confirmed to match the RefSeq NM_000176 for the human GR. […] This plasmid was transiently transfected into a stable CHO-K1+EA-NLS/NRS expressing cell line. Clonal selection for cells expressing both EA-NLS/NRS and GR-PL was performed as described above except the cells were subjected to double antibiotic selection (hygromycin and Geneticin/G418).
(§2) 10,000 cells/well were plated in a white Costar® 96 well plate and allowed to adhere overnight. […] To the reaction, 50 μL of cell lysis/substrate solution was added and the plate was read in a Wallace Victor 2 plate reader after 60 minutes. […] Antagonist studies were also performed using titrating amounts of geldenamycin (1-1000 nM) pre-incubated with the PathHunter cells for 1 hour prior to being treated with an agonist (at the EC80 concentration) for 3 hours and the EFC activity was measured.

[2] = target: T1, glucocorticoid receptor (GR) (Homo sapiens, UniProt P04150); assay: PathHunter GR translocation EFC assay, agonist mode, chemiluminescent detection; type: cell-based; details: CHO-EA+GR-PL (PathHunter) cells, agonist 3 hours, plate read after 60 minutes, FIG. 1
T1 construct: expressed in transfected cells; host or cells: CHO-K1 stably expressing EA-NLS/NRS (CHO-EA+GR-PL, 'PathHunter' cells)
T1 sequence (P04150 1-777): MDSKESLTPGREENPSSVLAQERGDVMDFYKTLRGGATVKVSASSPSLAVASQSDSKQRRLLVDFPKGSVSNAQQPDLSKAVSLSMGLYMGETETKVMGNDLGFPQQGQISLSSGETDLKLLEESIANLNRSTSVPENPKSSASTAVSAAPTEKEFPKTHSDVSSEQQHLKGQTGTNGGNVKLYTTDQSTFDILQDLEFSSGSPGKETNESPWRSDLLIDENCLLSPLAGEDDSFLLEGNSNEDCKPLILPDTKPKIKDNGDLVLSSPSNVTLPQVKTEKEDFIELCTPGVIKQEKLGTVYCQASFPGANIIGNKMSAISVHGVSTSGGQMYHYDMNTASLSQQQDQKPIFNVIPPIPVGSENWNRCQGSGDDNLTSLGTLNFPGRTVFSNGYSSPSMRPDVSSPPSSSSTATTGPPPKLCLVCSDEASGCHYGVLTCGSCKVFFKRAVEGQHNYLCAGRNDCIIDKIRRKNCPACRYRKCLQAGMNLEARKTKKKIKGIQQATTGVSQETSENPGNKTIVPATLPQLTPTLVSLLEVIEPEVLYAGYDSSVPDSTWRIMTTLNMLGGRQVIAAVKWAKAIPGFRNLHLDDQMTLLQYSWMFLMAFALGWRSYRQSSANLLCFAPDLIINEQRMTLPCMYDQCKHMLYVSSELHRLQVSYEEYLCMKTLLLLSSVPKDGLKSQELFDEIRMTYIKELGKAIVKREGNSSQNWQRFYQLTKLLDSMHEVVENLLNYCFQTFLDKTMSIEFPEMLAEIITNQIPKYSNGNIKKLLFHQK
Procedure: as §1, with “minutes. […]” for “minutes.”
as §2

| SMILES | IC50 ([1]; then 1 μM hydrocortisone as agonist for 3 hours) [nM] | IC50 ([1]; then 1 μM prednisolone as agonist for 3 hours) [nM] | IC50 ([1]; then dexamethasone treatment (EC80 concentration) for 3 hours, FIG. 2) [nM] | EC50 [2] [nM] |
| --- | --- | --- | --- | --- |
| COC1=C2C[C@@H](C)C[C@H](OC)[C@H](O)[C@@H](C)/C=C(\C)[C@H](OC(N)=O)[C@@H](OC)/C=C\C=C(/C)C(=O)NC(=CC1=O)C2=O [geldenamycin] | 23.8 | 22.3 | 11.6 |  |
| C[C@]12C=CC(=O)C=C1CC[C@H]1[C@@H]3C[C@@H](O)[C@](O)(C(=O)CO)[C@@]3(C)C[C@H](O)[C@@]12F [triamcinolone] |  |  |  | 62.9 |

Source: patent US20070105160A1, “Detection of intracellular enzyme complex” (DiscoveRx, priority 2005, published 2007)
